Read-outs that look alike come from different tables or passages of the source.
Assays:
[1] = tested on: catechol O-methyltransferase (COMT); set-up: method as in PMID 15755652, doi:10.1007/s40495-018-0157-y; conditions: cited from earlier work
[2] = tested on: catechol O-methyltransferase (COMT); set-up: method as in PMID 15755652, doi:10.1007/s40495-018-0157-y; conditions: cited from earlier work; remark: listed apart in the source
[3] = tested on: susceptible isolate of H. contortus, exsheathed L3 larvae; test: Larval motility assay (LMA), Worminator; type: cell-based, Haemonchus contortus; conditions: for anthelmintic activity in LMA: first round, up to 125 μM, any time point
Description: The H. contortus isolates used were TxPh-2011-S (Texas A&M University, USA) and UGA MDR 2020 (University of Georgia Athens, USA). TxPh-2011-S (Texas A&M University, USA) was originally isolated from Pronghorn antelope in West Texas in 2011 and is fully drug susceptible, phenotypically determined by the DrenchRite larval development assay (LDA; Microbial Screening Technologies, Kemps Creek, Australia). To establish this as a laboratory isolate, it was initially passaged in goats at Texas A&M University and then at The University of Georgia using both goats and sheep, and it is currently maintained in lambs at Louisiana State University. A nemabiome assay ([69]) was conducted at the University of Calgary to confirm that the isolate is 100% H. contortus. The UGA MDR 2020 (University of Georgia Athens, USA) isolate is resistant to ivermectin, benzimidazoles, levamisole, and moxidectin, as determined by the DrenchRite LDA. To establish this as a laboratory isolate, feces collected from a sheep farm in Georgia with known history of multiple anthelmintic resistance were cultured. Two donor goats were infected with the larvae recovered, which were morphologically ([70]) identified as 89% H. contortus. A fecal egg count reduction test (FECRT) was then performed in the infected goats. First, a combination treatment with albendazole at 15 mg/kg and ivermectin at 0.4 mg/kg was performed, followed by a treatment with levamisole at 12 mg/kg. Later, and to confirm resistance to moxidectin, another treatment was administered using a dose of 0.4 mg/kg of moxidectin. Posttreatment feces were recovered, coprocultures were established, and L3 larvae were identified as 100% H. contortus. Resistance to all drugs was subsequently confirmed using a DrenchRite assay.
For LMAs, the first phase testing using compounds NSC133100 and NSC177383 was done using the Worminator system in parallel with the LDA. Initial stock solutions of 12.5 mM were prepared for each compound using 100% DMSO as a solvent. Initial stock solutions (25 μL) were then diluted in 475 μL of culture media to yield working stock solutions of 625.00, 156.30, 39.10, 9.80, 2.40, 0.60, 0.20, 0.04, and 0.00 μM in 5% DMSO for each drug. In plate, 200 μL of working stock solutions were then diluted in 800 μL of culture media, yielding concentrations of 125.00, 31.25, 7.81, 1.95, 0.49, 0.12, and 0.00 μM in 1% DMSO. For the second phase of testing, compounds showing anthelmintic activity with the LDA were tested in a second round at higher concentrations than in the first phase of testing. Initial stocks of 50 mM were prepared for compounds NSC133100, NSC177383, NSC145612, and NSC56410 using 100% DMSO as a solvent. Initial stock solutions (25-μL portions) were then diluted in 475 μL of culture media consisting of 65% Lauria-Bertani (LB) (Thermo Fisher Scientific, Branchburg, NJ), 25% NCTC (Sigma-Aldrich), 10% fetal bovine serum (Atlanta Biologicals, Flowery Branch, GA), Pen/Strep (Sigma-Aldrich) at a final concentration of […], and amphotericin B (Sigma-Aldrich) at a final concentration of […]. The working stock solutions yielded concentrations of 2,500.00, 625.00, 156.30, 39.10, 9.80, 2.40, and 0.00 μM in 5% DMSO for each compound. In each well in the plate, 200 μL of working stock solutions were then diluted in 800 μL of culture media, yielding final concentrations of 500.00, 125.00, 31.30, 7.81, 1.95, 0.49, and 0.00 μM in 1% DMSO.
For the motility assays, 24-well plates with inserts were used (Costar, catalog no. 3379; Corning, Inc., Corning, NY). Portions (640 μL) of culture media were added to each well, and approximately 50 exsheathed larvae contained in 160 μL of culture media in each insert. Once pretreatment readings were taken, 160 μL of the drug solution was added to the well, and another 40 μL was added to the insert, reaching the final concentrations described in the protocol above. All concentrations were tested in triplicate. […]

O=c1c(O)cccc2cc(O)c(O)c(O)c12 [NSC35676, purpurogallin]
inhibition of COMT catalytic activity [1]: inhibit the catalytic activity
inhibition of COMT catalytic activity [2]: inhibit the catalytic activity

CO[C@H]1/C=C/O[C@@]2(C)Oc3c(C)c(O)c4c(O)c(cc(O)c4c3C2=O)NC(=O)/C(C)=C\C=C\[C@H](C)[C@H](O)[C@@H](C)[C@@H](O)[C@@H](C)[C@H](OC(C)=O)[C@@H]1C [NSC133100]
Percent inhibition of larval motility ([3]; 0.12 µM, 1 hour): -7.4%
Percent inhibition of larval motility ([3]; 0.12 µM, 4 hours): 14.9%
Percent inhibition of larval motility ([3]; 0.12 µM, 24 hours): 22.9%
Percent inhibition of larval motility ([3]; 0.12 µM, 48 hours): 8.7%
Percent inhibition of larval motility ([3]; 0.12 µM, 72 hours): 26.1%
Percent inhibition of larval motility ([3]; 0.12 µM, 96 hours): 7.4%
Percent inhibition of larval motility ([3]; 0.12 µM, Initial): -93.9%
Percent inhibition of larval motility ([3]; 0.49 µM, 1 hour): -29.1%
Percent inhibition of larval motility ([3]; 0.49 µM, 4 hours): 4.3%
Percent inhibition of larval motility ([3]; 0.49 µM, 24 hours): 8.0%
Percent inhibition of larval motility ([3]; 0.49 µM, 48 hours): -9.5%
Percent inhibition of larval motility ([3]; 0.49 µM, 72 hours): -14.9%
Percent inhibition of larval motility ([3]; 0.49 µM, 96 hours): -9.0%
Percent inhibition of larval motility ([3]; 0.49 µM, Initial): -118.5%
Percent inhibition of larval motility ([3]; 1.95 µM, 1 hour): -57.6%
Percent inhibition of larval motility ([3]; 1.95 µM, 4 hours): -16.4%
Percent inhibition of larval motility ([3]; 1.95 µM, 24 hours): -8.4%
Percent inhibition of larval motility ([3]; 1.95 µM, 48 hours): -37.5%
Percent inhibition of larval motility ([3]; 1.95 µM, 72 hours): -49.0%
Percent inhibition of larval motility ([3]; 1.95 µM, 96 hours): -50.7%
Percent inhibition of larval motility ([3]; 1.95 µM, Initial): -159.9%
Percent inhibition of larval motility ([3]; 7.81 µM, 1 hour): 27.5%
Percent inhibition of larval motility ([3]; 7.81 µM, 4 hours): 9.1%
Percent inhibition of larval motility ([3]; 7.81 µM, 24 hours): 25.3%
Percent inhibition of larval motility ([3]; 7.81 µM, 48 hours): 35.3%
Percent inhibition of larval motility ([3]; 7.81 µM, 72 hours): 32.1%
Percent inhibition of larval motility ([3]; 7.81 µM, 96 hours): 38.0%
Percent inhibition of larval motility ([3]; 7.81 µM, Initial): -74.0%
Percent inhibition of larval motility ([3]; 31.25 µM, 1 hour): 10.6%
Percent inhibition of larval motility ([3]; 31.25 µM, 4 hours): 7.1%
Percent inhibition of larval motility ([3]; 31.25 µM, 24 hours): 9.0%
Percent inhibition of larval motility ([3]; 31.25 µM, 48 hours): 35.2%
Percent inhibition of larval motility ([3]; 31.25 µM, 72 hours): 19.9%
Percent inhibition of larval motility ([3]; 31.25 µM, 96 hours): 28.7%
Percent inhibition of larval motility ([3]; 31.25 µM, Initial): -64.8%
Percent inhibition of larval motility ([3]; 125 µM, 1 hour): 4.3%
Percent inhibition of larval motility ([3]; 125 µM, 4 hours): -12.0%
Percent inhibition of larval motility ([3]; 125 µM, 24 hours): 3.2%
Percent inhibition of larval motility ([3]; 125 µM, 48 hours): 23.2%
Percent inhibition of larval motility ([3]; 125 µM, 72 hours): 3.1%
Percent inhibition of larval motility ([3]; 125 µM, 96 hours): 19.2%
Percent inhibition of larval motility ([3]; 125 µM, Initial): -8.9%
anthelmintic activity in LMA [3]: no anthelmintic activity

CO[C@@H]1/C=C/O[C@@]2(C)Oc3c(C)c(O)c4c(c3C2=O)C(=N[C@@H]2CC[C@@H](O)O[C@H]2C)C=C(NC(=O)/C(C)=C\C(=O)[C@@H]2C[C@@H]2[C@H](O)[C@@H](C)[C@@H](O)[C@@H](C)[C@H](OC(C)=O)[C@@H]1C)C4=O [NSC177383]
Percent inhibition of larval motility ([3]; 0.12 µM, 1 hour): 29.41%
Percent inhibition of larval motility ([3]; 0.12 µM, 4 hours): 4.95%
Percent inhibition of larval motility ([3]; 0.12 µM, 24 hours): 28.20%
Percent inhibition of larval motility ([3]; 0.12 µM, 48 hours): 2.41%
Percent inhibition of larval motility ([3]; 0.12 µM, 72 hours): 4.89%
Percent inhibition of larval motility ([3]; 0.12 µM, 96 hours): -16.32%
Percent inhibition of larval motility ([3]; 0.12 µM, Initial): -1.62%
Percent inhibition of larval motility ([3]; 0.49 µM, 1 hour): 25.94%
Percent inhibition of larval motility ([3]; 0.49 µM, 4 hours): 18.27%
Percent inhibition of larval motility ([3]; 0.49 µM, 24 hours): 23.09%
Percent inhibition of larval motility ([3]; 0.49 µM, 48 hours): 12.98%
Percent inhibition of larval motility ([3]; 0.49 µM, 72 hours): -5.94%
Percent inhibition of larval motility ([3]; 0.49 µM, 96 hours): -72.91%
Percent inhibition of larval motility ([3]; 0.49 µM, Initial): -11.69%
Percent inhibition of larval motility ([3]; 1.95 µM, 1 hour): 30.56%
Percent inhibition of larval motility ([3]; 1.95 µM, 4 hours): 33.37%
Percent inhibition of larval motility ([3]; 1.95 µM, 24 hours): 18.80%
Percent inhibition of larval motility ([3]; 1.95 µM, 48 hours): 14.16%
Percent inhibition of larval motility ([3]; 1.95 µM, 72 hours): -3.70%
Percent inhibition of larval motility ([3]; 1.95 µM, 96 hours): -23.78%
Percent inhibition of larval motility ([3]; 1.95 µM, Initial): 21.82%
Percent inhibition of larval motility ([3]; 7.81 µM, 1 hour): 26.94%
Percent inhibition of larval motility ([3]; 7.81 µM, 4 hours): 26.72%
Percent inhibition of larval motility ([3]; 7.81 µM, 24 hours): 22.63%
Percent inhibition of larval motility ([3]; 7.81 µM, 48 hours): 34.44%
Percent inhibition of larval motility ([3]; 7.81 µM, 72 hours): 14.00%
Percent inhibition of larval motility ([3]; 7.81 µM, 96 hours): -53.76%
Percent inhibition of larval motility ([3]; 7.81 µM, Initial): 22.03%
Percent inhibition of larval motility ([3]; 31.25 µM, 1 hour): 14.47%
Percent inhibition of larval motility ([3]; 31.25 µM, 4 hours): 38.95%
Percent inhibition of larval motility ([3]; 31.25 µM, 24 hours): 18.83%
Percent inhibition of larval motility ([3]; 31.25 µM, 48 hours): 26.89%
Percent inhibition of larval motility ([3]; 31.25 µM, 72 hours): 16.58%
Percent inhibition of larval motility ([3]; 31.25 µM, 96 hours): -23.43%
Percent inhibition of larval motility ([3]; 31.25 µM, Initial): 28.34%
Percent inhibition of larval motility ([3]; 125 µM, 1 hour): 42.55%
Percent inhibition of larval motility ([3]; 125 µM, 4 hours): 10.81%
Percent inhibition of larval motility ([3]; 125 µM, 24 hours): 16.94%
Percent inhibition of larval motility ([3]; 125 µM, 48 hours): 42.97%
Percent inhibition of larval motility ([3]; 125 µM, 72 hours): 27.79%
Percent inhibition of larval motility ([3]; 125 µM, 96 hours): 41.45%
Percent inhibition of larval motility ([3]; 125 µM, Initial): 22.02%
anthelmintic activity in LMA [3]: no anthelmintic activity
